Where two headings read alike, the source gives them in different places.
How the values were obtained:
Assay type in all cases: binding
BRD9 [1] = biological target: T1, BRD9 (Homo sapiens, UniProt Q9H8M2); experiment: Isothermal titration calorimetry, BRD9
T1 construct: made in house
T1 sequence (Q9H8M2 136-240 limits assumed): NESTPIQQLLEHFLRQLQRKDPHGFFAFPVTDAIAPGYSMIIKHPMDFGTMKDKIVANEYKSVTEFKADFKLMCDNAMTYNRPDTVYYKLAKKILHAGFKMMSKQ
Method: (§1) Experiments were carried out on an ITC200 titration microcalorimeter from MicroCal, LLC (GE Healthcare) equipped with a Washing module, with a cell volume of 0.2003 mL, and a 40 μL microsyringe. Experiments were carried out at 15 °C while stirring at 1000 rpm, in ITC buffer (50 mM HEPES, pH 7.5 (at 25 °C), 150 mM NaCl). The microsyringe was loaded with a solution of the protein sample (300−740 μM protein for BRD9 and BRD4(1), respectively, in ITC buffer) and was carefully inserted into the calorimetric cell which was filled with an amount of the ligand (0.2 mL, 20–25 μM in ITC buffer). The system was first allowed to equilibrate until the cell temperature reached 15 °C, and an additional delay of 60 s was applied. All titrations were conducted using an initial control injection of 0.3 μL followed by 38 identical injections of 1 μL with a duration of 2 s (per injection) and a spacing of 120 s between injections. The titration experiments were designed in such a fashion as to ensure complete saturation of the proteins before the final injection. The heat of dilution for the proteins was independent of their concentration and corresponded to the heat observed from the last injection, following saturation of ligand binding, thus facilitating the estimation of the baseline of each titration from the last injection. The collected data were corrected for protein heats of dilution (measured on separate experiments by titrating the proteins into ITC buffer) and deconvoluted using the MicroCal Origin software supplied with the instrument to yield enthalpies of binding (ΔH) and binding constants (KB) in the same fashion as that previously described in detail by Wiseman and co-workers.[66] Thermodynamic parameters were calculated using the basic equation of thermodynamics (ΔG = ΔH – TΔS = −RT ln KB, where ΔG, ΔH, and ΔS are the changes in free energy, enthalpy, and entropy of binding, respectively). In all cases a single binding site model was employed, supplied with the MicroCal Origin software package.

BRD4(1) [2] = biological target: T2, BRD4(1) (Homo sapiens, UniProt O60885); experiment: Isothermal titration calorimetry, BRD4(1); details: ITC, 50 mM HEPES pH 7.5, 150 mM NaCl, 15 °C, reverse titration, triplicate
T2 construct: made in house
Method: as §1

BRD9 [3] = biological target: T1, BRD9; experiment: Protein stability (thermal) shift assay, BRD9
Method: (§2) Thermal melting experiments were carried out using an Mx3005p real time PCR machine (Stratagene). Proteins were buffered in 10 mM HEPES, pH 7.5, 500 mM NaCl and assayed in a 96-well plate at a final concentration of 2 μM in 20 μL volume. Compounds were added at a final concentration of 10 or 100 μM. SYPRO Orange (Molecular Probes) was added as a fluorescence probe at a dilution of 1 in 1000. Excitation and emission filters for the SYPRO-Orange dye were set to 465 and 590 nm, respectively. The temperature was raised with a step of 3 °C per minute from 25 to 96 °C, and fluorescence readings were taken at each interval. The temperature dependence of the fluorescence during the protein denaturation process was approximated by the equation [drawing 1] where ΔuG is the difference in unfolding free energy between the folded and unfolded state, R is the gas constant, and yF and yU are the fluorescence intensity of the probe in the presence of completely folded and unfolded protein, respectively.[65] The baselines of the denatured and native states were approximated by a linear fit. The observed temperature shifts, ΔTm^obs, were recorded as the difference between the transition midpoints of sample and reference wells containing protein without ligand in the same plate and determined by nonlinear least-squares fit. Temperature shifts (ΔTm^obs) for three independent measurements per proteins/compound are summarized in Supporting Information Table S1.

[4] = tested on: human bromodomains (panel); experiment: Protein stability (thermal) shift assay, whole panel of human bromodomains; details: 10 μM compound
Method: as §2

BRD2(2) = biological target: T3, BRD2(2) (Homo sapiens, UniProt P25440); experiment: Protein stability (thermal) shift assay, BRD2(2); details: compound 10 μM, protein 2 μM; average of triplicate
T3 construct: made in house
Method: as §2

BRD2(1) = biological target: T4, BRD2(1) (Homo sapiens, UniProt P25440); experiment: Protein stability (thermal) shift assay, BRD2(1); details: compound 10 μM, protein 2 μM; average of triplicate
T4 construct: Fragments were tested in a thermal shift assay against bromodomains of the BET subfamily; made in house
Method: as §2

CREBBP = biological target: T5, CREBBP (Homo sapiens, UniProt Q92793); experiment: Protein stability (thermal) shift assay, CREBBP
T5 construct: small thermal shits (1.0–1.3 °C) for the bromodomain of CREBBP; made in house
Method: as §2

BRD4(1) [5] = biological target: T2, BRD4(1); experiment: Protein stability (thermal) shift assay, BRD4(1); details: compound 10 μM, protein 2 μM; average of triplicate; read-out: ΔTm Shift, BRD4(1)
Method: as §2

BRD4(2) = biological target: T6, BRD4(2) (Homo sapiens, UniProt O60885); experiment: Protein stability (thermal) shift assay, BRD4(2); details: compound 10 μM, protein 2 μM; average of triplicate
T6 construct: made in house
Method: as §2

PCAF = biological target: T7, PCAF (Homo sapiens, UniProt Q92831); experiment: Protein stability (thermal) shift assay, PCAF; details: compound 10 μM, protein 2 μM; average of triplicate
T7 construct: representative BRDs from other structural subfamilies (family I, PCAF); made in house
T7 sequence (Q92831 723-827 limits assumed): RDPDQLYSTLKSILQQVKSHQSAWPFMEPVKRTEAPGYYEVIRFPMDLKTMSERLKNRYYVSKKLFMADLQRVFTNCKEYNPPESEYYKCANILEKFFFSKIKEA
Method: as §2

BRDT(2) = biological target: T8, BRDT(2) (Homo sapiens, UniProt Q58F21); experiment: Protein stability (thermal) shift assay, BRDT(2); details: compound 10 μM, protein 2 μM; average of triplicate; read-out: ΔTm Shift, BRDT(2)
T8 construct: made in house
Method: as §2

BRD3(1) = biological target: T9, BRD3(1) (Homo sapiens, UniProt Q15059); experiment: Protein stability (thermal) shift assay, BRD3(1); details: compound 10 μM, protein 2 μM; average of triplicate
T9 construct: Fragments were tested in a thermal shift assay against bromodomains of the BET subfamily; made in house
Method: as §2

BAZ2B = biological target: T10, BAZ2B (Homo sapiens, UniProt Q9UIF8); experiment: Protein stability (thermal) shift assay, BAZ2B; details: compound 10 μM, protein 2 μM; average of triplicate; read-out: ΔTm Shift, BAZ2BA
T10 construct: representative BRDs from other structural subfamilies (family I, PCAF); family III, CREBBP; family IV, BRD9; family V, BAZ2B; made in house
T10 sequence (Q9UIF8 2060-2164 limits assumed): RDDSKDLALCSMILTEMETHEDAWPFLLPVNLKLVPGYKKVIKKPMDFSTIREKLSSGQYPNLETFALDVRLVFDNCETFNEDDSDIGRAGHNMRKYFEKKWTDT
Method: as §2

PB1(5) = biological target: T11, PB1(5) (Homo sapiens, UniProt Q86U86); experiment: Protein stability (thermal) shift assay, PB1(5); details: compound 10 μM, protein 2 μM; average of triplicate
T11 construct: made in house
Method: as §2

BRD3(2) = biological target: T12, BRD3(2) (Homo sapiens, UniProt Q15059); experiment: Protein stability (thermal) shift assay, BRD3(2); details: compound 10 μM, protein 2 μM; average of triplicate
T12 construct: made in house
Method: as §2

BRDT(1) = biological target: T13, BRDT(1) (Homo sapiens, UniProt Q58F21); experiment: Protein stability (thermal) shift assay, BRDT(1); details: compound 10 μM, protein 2 μM; average of triplicate
T13 construct: made in house
Method: as §2

[6] = ITC, 50 mM HEPES pH 7.5, 150 mM NaCl, 15 °C, reverse titration, triplicate
[7] = compound 10 μM, protein 2 μM, average of triplicate, read-out: ΔTm Shift, BRD9
[8] = thermal shift, 10 μM compound, 2 μM protein, read-out: ΔTm
[9] = compound 10 μM, protein 2 μM, average of triplicate, read-out: ΔTm Shift, CREBBP

T4 sequence (P25440 74-180 limits assumed): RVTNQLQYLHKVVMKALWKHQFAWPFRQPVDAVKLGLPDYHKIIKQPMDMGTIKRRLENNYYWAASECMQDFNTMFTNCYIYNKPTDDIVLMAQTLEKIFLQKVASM
T3 sequence (P25440 344-453 limits assumed): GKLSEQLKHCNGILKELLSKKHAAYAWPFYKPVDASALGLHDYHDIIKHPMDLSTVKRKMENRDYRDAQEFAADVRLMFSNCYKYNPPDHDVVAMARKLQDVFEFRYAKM
T12 sequence (Q15059 306-415 limits assumed): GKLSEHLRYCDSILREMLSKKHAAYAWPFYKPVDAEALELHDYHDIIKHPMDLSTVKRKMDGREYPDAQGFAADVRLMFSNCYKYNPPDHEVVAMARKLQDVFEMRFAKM
T5 sequence (Q92793 1085-1192 limits assumed): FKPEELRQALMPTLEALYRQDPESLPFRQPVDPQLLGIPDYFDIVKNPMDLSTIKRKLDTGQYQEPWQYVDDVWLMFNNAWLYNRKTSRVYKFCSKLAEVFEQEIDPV
T9 sequence (Q15059 34-140 limits assumed): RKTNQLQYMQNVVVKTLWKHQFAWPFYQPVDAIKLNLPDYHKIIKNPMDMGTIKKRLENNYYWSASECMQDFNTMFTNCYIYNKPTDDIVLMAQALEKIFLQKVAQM
T11 sequence (Q86U86 653-763 limits assumed): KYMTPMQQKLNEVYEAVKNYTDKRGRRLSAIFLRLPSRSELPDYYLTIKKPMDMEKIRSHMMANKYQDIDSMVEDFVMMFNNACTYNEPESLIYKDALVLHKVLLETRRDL

KD (BRD9 [1]; [6]) | ΔTm at 10 µM (BRD9 [3]; [7]) [°C] | ΔTm at 10 µM (BRD9 [3]; [8]) [°C] | ΔTm at 10 µM (BRD2(2)) [°C] | ΔTm at 10 µM (BRD2(1)) [°C] | ΔTm at 10 µM (CREBBP; [9]) [°C] | ΔTm at 10 µM (BRD4(1) [5]) [°C] | ΔTm at 10 µM (BRD4(2)) [°C] | ΔTm at 10 µM (PCAF) [°C] | ΔTm at 10 µM (BRDT(2)) [°C] | ΔTm at 10 µM (BRD3(1)) [°C] | ΔTm at 10 µM (BAZ2B) [°C] | ΔTm at 10 µM (PB1(5)) [°C] | ΔTm at 10 µM (BRD3(2)) [°C] | ΔTm at 10 µM (BRDT(1)) [°C] | SMILES | other results
 |  | 2.9 | 1.7 | 0.6 |  | 2.3 | -2.2 | -0.7 | 1.4 | 1.4 | -0.217 | 0.236 | 2.5 | 0.6 | COc1ccccc1-c1nc(N)nc2[nH]cnc12 [Compound 7a, 2-Amino-6-(2-methoxyphenyl)-9H-purine] | ΔTm at 10 µM (CREBBP; [8]): 1.5 °C; Kd (BRD9 [1]; ITC, 50 mM HEPES pH 7.5, 150 mM NaCl, 15 °C, reverse titration, triplicate, read-out: KD): 641 ± 33 nM; ΔG (BRD9 [1]; ITC, 15 °C): –8.16 kcal/mol; N (stoichiometry) (BRD9 [1]; ITC, 15 °C, reverse titration): 1.06 ± 0.004; ΔHobs (BRD9 [1]; ITC, 15 °C, reverse titration): –12.71 ± 0.07 kcal/mol; LE (ligand efficiency) (BRD9 [1]; LE = ΔG/N, N number of non-hydrogen atoms): 0.45
 | -0.162 |  | -0.3 | -0.459 | -0.1 | 0.6 | -0.845 | -0.261 | 0.447 | 0.651 | -0.3 | 0.216 | 0.6 | 0.165 | COc1cccc(OC(C)C)c1-c1nc(N)nc2[nH]cnc12 [Compound 6b, 2-Amino-6-(2-isopropoxy-6-methoxyphenyl)-9H-purine] | 

More lines, now with the values behind:

SMILES | KD (BRD9 [1]; [6]) | ΔTm at 10 µM (BRD9 [3]; [7]) [°C] | ΔTm at 10 µM (BRD9 [3]; [8]) [°C] | ΔTm at 10 µM (BRD2(2)) [°C] | ΔTm at 10 µM (BRD2(1)) [°C] | ΔTm at 10 µM (CREBBP; [9]) [°C] | ΔTm at 10 µM (BRD4(1) [5]) [°C] | ΔTm at 10 µM (BRD4(2)) [°C] | ΔTm at 10 µM (PCAF) [°C] | ΔTm at 10 µM (BRDT(2)) [°C] | ΔTm at 10 µM (BRD3(1)) [°C] | ΔTm at 10 µM (BAZ2B) [°C] | ΔTm at 10 µM (PB1(5)) [°C] | ΔTm at 10 µM (BRD3(2)) [°C] | ΔTm at 10 µM (BRDT(1)) [°C] | other results
Nc1nc(Br)c2nc[nH]c2n1 [Compound 2a, 2-amino-6-bromo-9H-purine] | no binding/weak | 0.01 | 1.6 |  |  |  |  |  |  |  |  |  |  |  |  | KD (BRD4(1) [2]): no binding/weak
Cn1cnc2c(NCc3ccccc3)nc(NCCO)nc21 [olomoucine, reference compound] |  |  |  |  |  |  |  |  |  |  |  |  |  |  |  | binding to the bromodomain panel in the ΔTm assay (in words) [4]: did not show any significant stabilization
Cn1cnc2c(Br)nc(N)nc21 [Compound 2b, 2-Amino-6-bromo-9-methylpurine] | no binding/weak | -0.0162 |  | -1.8 | -0.239 | 3.1 | 1.4 | -2.4 | -1.6 | -0.4 | 0.654 | -0.8 | 1.9 | -0.6 | -0.8 | 
